In patent US4939178A, “Use of avarol for the control of adult T-cell leukemia/lymphoma” (Merz + Co. GmbH & Co., priority 1986, dated 1990):
Read-outs that look alike come from different tables or passages of the source.

What was measured:
[1] = tested on: macrophage-containing and macrophage-depleted lymphocyte cultures; assay: [3H]-dThd incorporation in lymphocyte cultures of pretreated mice; settings: pretreatment of mice with avarol, lymphocyte cultures in vitro
[2] = tested on: T-cell derived leukemia cells; settings: cited from earlier work
ATL-1K cells = assay: Cell growth of ATL-1K cells; type: cell-based; settings: two days, control 15.7
Source text: (§1) For this, the MT-2, ATL-3I, and ATL-1K cell lines were employed. These cell lines are described by Hashino, H., et al., Proc. Nat. Academy Science U.S.A. 80, 6061-6065 (1983) and by Miyoshi, J., et al., Nature 294, 770-771 (1981). All these cell lines contain the HTLV-provirus, and among these cell lines primarily the lines MT-2 and ATL-3I express also the retrovirus antigens and also produce the HTLV-I virus.
(§2) Cell culture conditions were employed according to those described by H. Hoshino, et al., Proc. Nat. Acad. Sci. (U.S.A.) 80, 1983, 7337-7341.
(§3) ATL-3-I, MT-2, and ATL-1K cells were seeded into Petri dishes in a concentration of 3×10^3 cells/cm^2 in a culture medium containing 20% of calf serum. After incubation for two days, the density of the cells amounted to: […]: 13.2×10^3 cells/cm^2; MT-2: 12.4×10^3 cells/cm^2; ATL-1K: 15.7×10^3 cells/cm^2. These values formed the control values.
(§4) Thereupon samples of these cells were treated for two days with different concentrations of avarol.

male NMRI mice [3] = assay: Contact allergy to oxazolone; type: in vivo; settings: 3-30 mg/kg i.p., day -1 to +2 or day +6 to +8; P>0.05
[4] = tested on: retroviral (HTLV-I) antigen in ATL-3-I cells; assay: microbe, parasite or virus in culture; type: cell-based; settings: Primate T-lymphotropic virus 1, read-out: Expression of retroviral antigen (in %)
[5] = tested on: peripheral human lymphocytes (buffy coat cells); assay: Interferon-gamma production by lymphocytes (EIA); type: cell-based
Description: Effector cells: Buffy coat cells were prepared by centrifugation on Ficoll-Plaque gradient and washed two times. Subsequently the cells were divided and adjusted to a concentration of 5×1,000,000 cells/ml.
Interferon measurement: Levels of Interferon were defined by an Enzymeimmunoassay (EIA). Interferon gamma: 96 well flat bottom plates (Greiner, Nuertingen) were coated with a monoclonal antibody recognizing Interferon gamma. 200 μl of the supernatant sample were added per well together with Interferon gamma-peroxidase coupled (50 μl), consisting of the same antibody as used for coating. […] The enzymatic reaction is completed by a preparation containing hydrogen peroxide substrate. The reaction is stopped within 15 minutes by 100 μl of sulfuric acid per well. The amount of Interferon is defined by comparing the extinction of the test sample with a standard curve produced by known values of Interferon gamma.

[6] = tested on: male NMRI mice immunized with SRBC; assay: Jerne plaque test, in vivo immunoglobulin production; settings: avarol 30 mg/kg i.p., from 0 to +4
Description: The plaque test of Jerne and Nordin (Science 140: 405-406, 1963) was used with the modification given by Cunningham and Szenberg (Immunolog. 14: 599-601; 1968). Briefly, 8 male NMRI mice per group (20-22 g) were immunized on day 0 by i.p. injection of 5×10^8 SRBC in 0.5 ml saline. Treatment with avarol was done i.p. either from day 0 to day +4 or from day -4 to day 0. One hour after the last drug administration, the animals were killed by a blow on the head and bled. The spleens were removed and a single cell suspension was prepared by teasing the pooled spleens through a 120μm mesh sieve. After lysing the erythrocytes by 0.15M NH4 Cl, the cells were washed twice in Hank's balanced salt solution containing 29 ml of 7.5% NaHCO3 and 10 ml of 1M HEPES buffer solution per one liter. The cells were resuspended in 2 ml per spleen. Six Cunningham chambers per group were filled with a mixture of 0.5 ml of a suitable dilution of spleen cells (generally 1:100), 0.5 ml of a suspension of SRBC (10^9 /ml) and 125 μl of normal guinea pig complement. After 90-120 min of incubation at 37° C., the number of plaques was counted. Plaques per spleen or per 10^6 spleen cells were calculated.
The pooled blood of 8 mice was centrifuged to obtain the serum. IgM and IgG titers were measured with the mercaptoethanol method (Hudson, L. and Hay, F. C. Practical Immunology, Blackwell Sci., Oxford; 1983).

male NMRI mice [7] = assay: Delayed-type hypersensitivity to sheep red blood cells; type: in vivo
Description: Reaction to sheep red blood cells (SRBC): DTH was produced according to the method of Lagrange et al. (J. Exp. Med. 139: 528-542; 1974) and Liew (Eur. J. Immunol. 7, 714-718; 1977). Male NMRI mice (20-23 g, 10 animals/group) were immunized with 10^8 SRBC/40 μl into one foot pad (day 0). Four days later 10^9 SRBC/40 μl were injected into the other foot pad. After 24 hours, paw size was measured with a dial gauge caliper Odi-Test OOT (H. C. Kroeplin, Schluchtern, Germany). Avarol (in 0.15% [w/v] methylcellulose) was administered daily i.p. either from day -2 to +1 or from day +2 to +4. The level of DTH was expressed as foot pad increase, determined after 24 hrs; and it is given in mm. Non-treated groups were injected i.p. with methylcellulose only. Treated groups were compared with the controls using the U-test of Wilcoxon et al. (Sachs, L. Angewandte Statistik, Springer-Verlag, Berlin; 1984).

[8] = type: in vivo, rats
male Sprague-Dawley rats = assay: Antibody mediated hypersensitivity, modified active Arthus reaction; type: in vivo
Description: A modified active Arthus reaction was performed as described (Titus et al., J. Immunol. Methods 45: 65-78; 1981). Male Sprague-Dawley rats (8/group) weighing 120 g were immunized by injecting into the tail base 0.5 ml of a suspension of 4.4 ml pertussis vaccine (Behringwerke, Marburg) in 65.6 ml of 0.9% saline plus 0.7 g ovalbumin (3×cryst.) in 100 ml paraffin oil. Three weeks after immunization 0.1 ml of 0.03% ovalbumin solution were injected into a hind paw and the paw volume was measured with a water plethysmometer (Rhema) immediately thereafter and again after 4 hours. The animals were treated i.p. with daily doses from 3-30 mg/kg of avarol (in 0.15% [w/v] methylcellulose) according to the following schedules: (i) day -1 to +2, (ii) day +18 to +21 or (iii) twice 24 hours and 30 minutes before challenge (day 0 represents the day of immunization). The controls received methylcellulose only. Values are compared with a control group using Student's-t-test (L. Sachs. Angewandte Statistik, Springer-Verlag, Berlin; 1984).

ATL-3-I cells = assay: Cell growth of ATL-3-I cells; type: cell-based; settings: two days, control 13.2
Source text: as §1, §2, §3, §4

[9] = Organ distribution of tritium labelled avarol; type: in vivo, rats
Description: The organ distribution was determined by the same method using tritium labelled Avarol. The determinations were performed 24 hours after termination of the i.v. application. These concentrations were determined on the basis of radioactivity. Moreover, the chemical nature of the radioactive product was identified by high-pressure liquid chromatography and found to consist of over 90% of Avarol. In addition, the biological activity of the compound in the blood was determined after extraction with ethyl acetate and estimated in the […] cell system in vitro (Muller, W. E. G. et al.; Comp. Biochem. Physiol. 80C, 47-52; 1985). Using this system, the biological activity of the compound, present in the blood, was determined and converted on a gram basis. Using this approach the concentration in the blood was only 5-15% lower than that determined on the basis of radioactivity.

MT-2 cells = assay: Cell growth of MT-2 cells; type: cell-based; settings: two days, control 12.4
Source text: as §1, §2, §3, §4

## CC1=CCC[C@H]2[C@](C)(Cc3cc(O)ccc3O)[C@@H](C)CC[C@]12C [Avarol, 2-[(1R)-1,2,3,4,4a,7,8,8aα-octahydro-1β,2β,4aβ,5-tetramethyl-1-naphthylmethyl]-1,4-benzenediol]
[1]
  [3H]-dThd incorporation rate: higher
[2]
  lymphoma cell growth inhibited by 50%: 0.3 to 0.4 µg/mL
ATL-1K cells; drug 1.0 μg/ml
  Cell concentration ATL-1K: 13.4 × 10^3 /cm^2
ATL-1K cells; drug 5.0 μg/ml
  Cell concentration ATL-1K: 10.3 × 10^3 /cm^2
Male NMRI mice [3]
  influence on DTH oxazolone: did not influence significantly
[4]
  activity at 1 µg/mL: 82%
  activity at 5 µg/mL: 74%
[5]; avarol 1.0 μg/ml, 48 hours
  Titer of Interferon-gamma produced by lymphocytes: 52 Units/ml of supernatant
[5]; buffy coat cells
  optimal dose for Interferon gamma induction in vitro: 0.5 µg/mL
[6]
  Cell/spleen: 1.2e+08 cells/spleen
Male NMRI mice [7]; i.p. day +2 to +4 after immunization, doses higher than 10 mg/kg
  influence on DTH to SRBC: weak but significant immunosuppressive effect
Male NMRI mice [7]; i.p. day -2 to +1, up to daily doses of 30 mg/kg
  influence on DTH to SRBC: no significant immunosuppressive influence
[8]; 10 mg/kg i.v., 1 hour
  Percentage of Radioactivity in Blood: 96%
[8]; 10 mg/kg i.v., 6 hours
  Percentage of Radioactivity in Blood: 88%
[8]; 10 mg/kg i.v., 12 hours
  Percentage of Radioactivity in Blood: 72%
[8]; 10 mg/kg i.v., 24 hours
  Percentage of Radioactivity in Blood: 43%
[8]; 10 mg/kg i.v., 48 hours
  Percentage of Radioactivity in Blood: 26%
[8]; 20 mg/kg i.v., 1 hour
  Percentage of Radioactivity in Blood: 92%
[8]; 20 mg/kg i.v., 12 hours
  Percentage of Radioactivity in Blood: 75%
[8]; 20 mg/kg i.v., 24 hours
  Percentage of Radioactivity in Blood: 39%
[8]; 20 mg/kg i.v., 48 hours
  Percentage of Radioactivity in Blood: 21%
[8]; rat, in vivo
  Percentage of Radioactivity in Blood: 83
Male Sprague-Dawley rats; 30 mg/kg, 24 hours and 30 minutes before challenge, P>0.05
  suppression of the Arthus reaction: not significant
Male Sprague-Dawley rats; 3-30 mg/kg i.p., day -1 to +2, day +18 to +21 or immediately before challenge
  suppression of the Arthus reaction: no significant suppression
ATL-3-I cells; drug 1.0 μg/ml
  Cell concentration ATL-3-I: 9.4 × 10^3 /cm^2
ATL-3-I cells; drug 5.0 μg/ml
  Cell concentration ATL-3-I: 8.7 × 10^3 /cm^2
[9]; 10 mg/kg i.v., 24 hours
  Concentration of Avarol, Skin: 0.6 microgram of Avarol per gram o
[9]; 20 mg/kg i.v., 24 hours
  Concentration of Avarol, Brain: 0.64 microgram of Avarol per gram o
[9]; rats
  blood-brain barrier penetration: penetrates the blood-brain barrier
MT-2 cells; drug 1.0 μg/ml
  Cell concentration MT-2: 8.1 × 10^3 /cm^2
MT-2 cells; drug 5.0 μg/ml
  Cell concentration MT-2: 7.9 × 10^3 /cm^2
